{"source": "patent US7704986B2", "about": "“Vitamin D3 analogues for the prevention and treatment of bone disorders” (K.U. Leuven Research and Development, priority 2004, dated 2010)", "key": {"[1]": {"system": "normal (no surgery) C3H female mice", "test": "Oral gavage versus i.p. in normal (no surgery) mice, 5 weeks", "type": "in vivo", "settings": "for BMC total body, SHAM + vitaminD analogue vs. SHAM + vehicle (= 100%) in % / BMD spine, SHAM + vitaminD analogue vs. SHAM + vehicle (= 100%) in % / BMD total body, SHAM + vitaminD analogue vs. SHAM + vehicle (= 100%) in %: DEXA, 5 weeks, increase (↑)", "method": "Besides injecting the compound MV2 intraperitoneally (results in table 3), it was also given orally by gavage in normal (no surgery) C3H female mice and the biological effects were investigated as described before. MV2 given orally at a dose of 1 μg/kg/2days (3 times per week) during 5 weeks was as effective as intraperitoneal injections at a dose of 0.5 μg/kg/2 days (4 times per week) during 5 weeks in C3H mice (Table 4)."}, "[2]": {"system": "SHAM or OVX operated C3H mice", "test": "Ovariectomized mice model for primary prevention of osteoporosis", "type": "in vivo", "settings": "0.5 μg/kg i.p.", "method": "Twelve-week-old C3H mice were randomly divided into four groups (9-13 mice/group). Two groups of mice were SHAM-operated (SHAM) and two groups were ovariectomized (OVX). Three days after the surgical procedure the SHAM and OVX mice were injected with MV2 intraperitoneally at 0.5 μg/kg/2days (4 times per week) or vehicle (arachis oil). The mice were treated for 8 weeks. At the beginning (before the first injection) of the experiment, bone mineral density (BMD) and bone mineral content (BMC) were determined by dual-energy X-ray absorptiometry (hereinafter referred as DEXA) and serum calcium levels were determined by a microcolorimetric assay. The animals were weighted regularly during the experimental period.\nAt the end of the experiment serum calcium levels, BMD and BMC were again measured. Trabecular and cortical bone mineral content (BMC) and bone mineral density (BMD) and the geometry of the femur were assessed by a Stratex XCT densitometer (pQCT). Femur calcium content was measured in HCl-dissolved bone ash (obtained by heating for 24 hours in an oven at 100° C.), using a microcolorimetric assay. […] Statistical analysis was performed with the software program NCSS (NCSS, Kaysville, Utah, USA). ANOVA analyses followed bye Fisher's least significant (LSD)-multiple comparison tests were carried out to detect significant differences, p<0.05 was accepted as significant."}, "[3]": {"biological_target": "T1, vitamin D receptor (VDR) (Sus scrofa, UniProt A3RGC1)", "T1 construct": "high speed supernatant from intestinal mucosa homogenates obtained from normal pigs; from tissue; host or cells: pig intestinal mucosa (high speed supernatant of homogenate)", "T1 sequence (A3RGC1 1-427)": "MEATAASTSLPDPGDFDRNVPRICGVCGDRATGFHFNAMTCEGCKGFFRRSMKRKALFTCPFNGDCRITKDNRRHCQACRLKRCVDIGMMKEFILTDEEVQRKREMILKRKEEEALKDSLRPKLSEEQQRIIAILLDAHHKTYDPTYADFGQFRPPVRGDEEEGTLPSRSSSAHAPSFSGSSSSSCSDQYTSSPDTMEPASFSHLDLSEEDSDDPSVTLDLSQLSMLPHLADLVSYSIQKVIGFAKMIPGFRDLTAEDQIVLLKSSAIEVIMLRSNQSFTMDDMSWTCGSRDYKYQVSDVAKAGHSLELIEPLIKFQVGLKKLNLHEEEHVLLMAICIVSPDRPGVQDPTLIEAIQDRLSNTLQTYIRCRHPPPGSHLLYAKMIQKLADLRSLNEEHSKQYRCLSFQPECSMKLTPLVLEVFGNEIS", "test": "Affinity for vitamin D receptor: competition with [3H]1α,25(OH)2D3", "type": "binding", "settings": "pig intestinal mucosa supernatant, 4° C. 20 hours; 1α,25(OH)2D3 = 100%", "method": "The methods used herein to evaluate the binding properties of vitamin D analogues are state of the art techniques used for steroid hormone (including vitamin D) binding assays. […] Incubation was performed at 4° C. for 20 hours and phase separation was obtained by addition of dextran-coated charcoal."}, "[4]": {"system": "NMRI mice", "test": "In vivo activity: serum and femur calcium after 7 daily i.p. injections", "settings": "dose 0.2 μg/kg/d i.p., 7 days; * in cell = P < 0.05", "method": "Eight weeks old, male NMRI mice were fed a vitamin D-replete diet (0.2% calcium, 1% phosphate, 2000 U vitamin D/kg; Hope Farms, Woerden, The Netherlands). Groups of six mice were intraperitoneally injected daily during 7 consecutive days with different doses of 1,25(OH)2D3 (0.2 and 0.4 μg/kg/day) or analogues. The control group was injected with vehicle (arachis oil). The average weight of each group of 6 mice was determined at the beginning and at the end of the experiment. The following parameters were evaluated: serum calcium and femur calcium. Serum calcium was measured by a microcolorimetric assay (Sigma, St. Louis, Mo.). Femurs were removed and femur calcium content was measured in HCl-dissolved bone ash (obtained by heating for 24 hours in an oven at 100° C.), using the same technique as for serum calcium. Student's t-tests were carried out to detect significant differences; p<0.05 was accepted as significant. […]"}, "[5]": {"settings": "0.5 μg/kg/2 days i.p. 4 times per week"}, "[6]": {"settings": "1 μg/kg/2 days orally 3 times per week"}, "[7]": {"settings": "DEXA, OVX mice, 8 weeks, increase (↑)"}, "[8]": {"settings": "DEXA, SHAM mice, 8 weeks, increase (↑)"}, "[9]": {"settings": "calculated from pQCT femur, OVX mice, 8 weeks, increase (↑)"}, "[10]": {"settings": "calculated from pQCT femur, SHAM mice, 8 weeks, increase (↑), * not significant"}, "[11]": {"settings": "pQCT femur, OVX mice, 8 weeks, increase (↑)"}, "[12]": {"settings": "pQCT femur, SHAM mice, 8 weeks, increase (↑)"}}, "note": "Several values for one entry are separate records, joined by “and”; a condition that tells them apart may be missing. Identical values can stand only once.", "data": [{"compound": "C[C@H](CC#CC(O)(C(F)(F)F)C(F)(F)F)[C@@]1(C)CC[C@@H](/C=C/C=C2C[C@@H](O)C[C@H](O)C2)C1(C)C", "note": "[MV2, (1R,3R)-5-((E)-3-((1S,3R)-3-((1R)-6,6,6-trifluoro-5-hydroxy-1-methyl-5-trifluoromethyl-3-hexynyl)-2,2,3-trimethylcyclopentyl)-2-propenylidene)cyclohexane-1,3-diol]", "values": [{"measurement": "BMC total body, SHAM + vitaminD analogue vs. SHAM + vehicle (= 100%) in %", "setting": "[1]; [5]", "value": "7 ↑ %"}, {"measurement": "BMD spine, SHAM + vitaminD analogue vs. SHAM + vehicle (= 100%) in %", "setting": "[1]; [5]", "value": "9 ↑ %"}, {"measurement": "BMD total body, SHAM + vitaminD analogue vs. SHAM + vehicle (= 100%) in %", "setting": "[1]; [5]", "value": "4 ↑ %"}, {"measurement": "BMC total body, SHAM + vitaminD analogue vs. SHAM + vehicle (= 100%) in %", "setting": "[1]; [6]", "value": "10 ↑ %"}, {"measurement": "BMD spine, SHAM + vitaminD analogue vs. SHAM + vehicle (= 100%) in %", "setting": "[1]; [6]", "value": "14 ↑ %"}, {"measurement": "BMD total body, SHAM + vitaminD analogue vs. SHAM + vehicle (= 100%) in %", "setting": "[1]; [6]", "value": "5 ↑ %"}, {"measurement": "serum calcium levels", "setting": "[1]; analogue treated mice, 5 weeks (control mice 11.43±0.78)", "value": "11.36 ± 0.56", "unit": "mg/dL"}, {"measurement": "body weight during treatment", "setting": "[2]; 8 weeks", "value": "no animals lost weight"}, {"measurement": "serum calcium levels (no hypercalcemic effects)", "setting": "[2]; end of 8 weeks", "value": "below 11.5 mg/dl"}, {"measurement": "BMC total body, OVX + analogue vs. OVX + vehicle (= 100%) in %", "setting": "[2]; [7]", "value": "19% and 19 ↑ %"}, {"measurement": "BMD spine, OVX + analogue vs. OVX + vehicle (= 100%) in %", "setting": "[2]; [7]", "value": "22% and 22 ↑ %"}, {"measurement": "BMD total body, OVX + analogue vs. OVX + vehicle (= 100%) in %", "setting": "[2]; [7]", "value": "9% and 9 ↑ %"}, {"measurement": "BMC total body, SHAM + analogue vs. SHAM + vehicle (= 100%) in %", "setting": "[2]; [8]", "value": "16% and 16 ↑ %"}, {"measurement": "BMD spine, SHAM + analogue vs. SHAM + vehicle (= 100%) in %", "setting": "[2]; [8]", "value": "11% and 11 ↑ %"}, {"measurement": "BMD total body, SHAM + analogue vs. SHAM + vehicle (= 100%) in %", "setting": "[2]; [8]", "value": "9% and 9 ↑ %"}, {"measurement": "increase in calcium content in femur, OVX treated animals compared to control animals", "setting": "[2]; OVX mice, 8 weeks", "value": 14, "unit": "%"}, {"measurement": "increase in calcium content in femur, SHAM treated animals compared to control animals", "setting": "[2]; SHAM mice, 8 weeks", "value": 12, "unit": "%"}, {"measurement": "Moment of inertia, OVX analogue versus OVX vehicle (=100%) in %", "setting": "[2]; [9]", "value": "12 ↑ %"}, {"measurement": "Moment of resistance, OVX analogue versus OVX vehicle (=100%) in %", "setting": "[2]; [9]", "value": "8 ↑ %"}, {"measurement": "Moment of inertia, SHAM analogue versus SHAM vehicle (=100%) in %", "setting": "[2]; [10]", "value": "6 ↑* %"}, {"measurement": "Moment of resistance, SHAM analogue versus SHAM vehicle (=100%) in %", "setting": "[2]; [10]", "value": "3 ↑* %"}, {"measurement": "Endosteal circumference, OVX analogue versus OVX vehicle (=100%) in %", "setting": "[2]; pQCT femur, OVX mice, 8 weeks, decrease (↓), * not significant", "value": "2 ↓* %"}, {"measurement": "Cortical BMC, OVX analogue versus OVX vehicle (=100%) in %", "setting": "[2]; [11]", "value": "11 ↑ %"}, {"measurement": "Cortical BMD, OVX analogue versus OVX vehicle (=100%) in %", "setting": "[2]; [11]", "value": "2 ↑ %"}, {"measurement": "Cortical area, OVX analogue versus OVX vehicle (=100%) in %", "setting": "[2]; [11]", "value": "9 ↑ %"}, {"measurement": "Cortical thickness, OVX analogue versus OVX vehicle (=100%) in %", "setting": "[2]; [11]", "value": "8 ↑ %"}, {"measurement": "Periosteal circumference, OVX analogue versus OVX vehicle (=100%) in %", "setting": "[2]; [11]", "value": "3% and 3 ↑ %"}, {"measurement": "Trabecular BMC, OVX analogue versus OVX vehicle (=100%) in %", "setting": "[2]; [11]", "value": "69 ↑ %"}, {"measurement": "Trabecular BMD, OVX analogue versus OVX vehicle (=100%) in %", "setting": "[2]; [11]", "value": "57 ↑ %"}, {"measurement": "Trabecular area, OVX analogue versus OVX vehicle (=100%) in %", "setting": "[2]; [11]", "value": "8 ↑ %"}, {"measurement": "Endosteal circumference, SHAM analogue versus SHAM vehicle (=100%) in %", "setting": "[2]; pQCT femur, SHAM mice, 8 weeks, decrease (↓), * not significant", "value": "4 ↓* %"}, {"measurement": "Cortical BMC, SHAM analogue versus SHAM vehicle (=100%) in %", "setting": "[2]; [12]", "value": "7 ↑ %"}, {"measurement": "Cortical BMD, SHAM analogue versus SHAM vehicle (=100%) in %", "setting": "[2]; [12]", "value": "1 ↑ %"}, {"measurement": "Cortical area, SHAM analogue versus SHAM vehicle (=100%) in %", "setting": "[2]; [12]", "value": "6 ↑ %"}, {"measurement": "Cortical thickness, SHAM analogue versus SHAM vehicle (=100%) in %", "setting": "[2]; [12]", "value": "6 ↑ %"}, {"measurement": "Trabecular BMC, SHAM analogue versus SHAM vehicle (=100%) in %", "setting": "[2]; [12]", "value": "83 ↑ %"}, {"measurement": "Trabecular BMD, SHAM analogue versus SHAM vehicle (=100%) in %", "setting": "[2]; [12]", "value": "74 ↑ %"}, {"measurement": "Trabecular area, SHAM analogue versus SHAM vehicle (=100%) in %", "setting": "[2]; [12]", "value": "7 ↑ %"}, {"measurement": "Periosteal circumference, SHAM analogue versus SHAM vehicle (=100%) in %", "setting": "[2]; pQCT femur, SHAM mice, 8 weeks, increase (↑), * not significant", "value": "1 ↑* %"}, {"measurement": "VDR (relative affinity)", "setting": "[3]", "value": 50, "unit": "%"}, {"measurement": "Serum calcium vs. control (%)", "setting": "[4]", "value": 97, "unit": "%"}, {"measurement": "femur calcium vs. control (%)", "setting": "[4]", "value": "112* %"}]}]}
